In one assay the test system is Sf9 cells. Description: quantification of cAMP generated in Sf9 cells after compound treatment ([3H]cAMP competition for bovine adrenal binding protein, single vessel). The class given is cell-based. As for the experimental part:
On the day of the experiment, four-day sold Sf9 cells for use in the first step, with cell density at about 5,000,000 to about 6,000,000 cells, were spun in a Biofuge 15 centrifuge (available from Heneaus Instruments, Germany at 1310 rpm (500 g) for five minutes. After this time, the supernatant was discarded and sufficient Sf9 serum free medium (Sf900 II SFM) was added to the resulting cell pellet give a final concentration of 2,000,000 cells /ml. To these cells was added 0.02 ml of Solution J. Upon completion of addition, the resulting solution was gently mixed and then incubated at ambient temperature for 40 minutes, for use, below .
This method was performed in the manner disclosed in Example 1 except that synephrine was used rather than amitraz, and the concentrations of the synephrine dilutions were in the range of 0.00369 mM to 1.0 mM rather than 0.00123 mM to 0.3 mM.
This method was performed in the manner disclosed in Example 1 except that DL-octopamine was used rather than amitraz, and the concentrations of the DL-octopamine dilutions were in the range of about 0.0123 mM to about 3.0 mM rather than about 0.00123 mM to about 0.3 mM.
This method was performed in the manner disclosed in Example 1 except that DCDM was used rather than amitraz, and the concentrations of the DCDM dilutions were in the range of 0.000123 mM to about 0.03 mM rather than 0.00123 mM to about 0.3 mM.

Assay [1] relates to protein derived from a bovine adrenal gland.
Protocol: Thereafter, 50 μl of the above-prepared Sf9 cell solution was added to all of the wells. The microplates were incubated at ambient temperature for 45 minutes. After this time, the Sf9 cells were lysed by adding 50 μl of Solution H. The microplates were incubated a second time at ambient temperature for 15 to 20 minutes. After this time, 25 μl of Solution R followed by 25 μl of Solution Q were added to the microplates. The microplates were incubated for a third time at ambient temperature with shaking at 125 rpm for 90 minutes. The resulting mixtures were filtered under reduced pressure through glass fiber filtermats, which were soaked in 500 ml of Solution G for about 30 minutes prior to use. The filtermats were washed for ten seconds with ice-cold Solution F and then, dried at 60° C. for 45 to 60 minutes in a Stabil-Therm® oven (available from Blue M Electric Co., Blue Island, Ill.). After this time, the amount of the radiolabeled 3′,5′-monophosphate/binding protein complex bound to the filtermats was determined by the aforesaid quantification method.
The mark [2] stands for this setting: 0.000111 mM in the synephrine series.

Like-named read-outs stand apart in the source and are kept apart here.

For the molecule `NCC(O)c1ccc(O)cc1` (racemic) [DL-octopamine], in the assay with Sf9 cells (0.00041 mM), the “Specific Counts (dpm)” value is 5942.2 dpm, the “Total Counts (dpm) Determined” value is 6899 dpm and at 0.41 µM the inhibition was 6.9%. For the same molecule, in the assay on Sf9 cells (0.00123 mM), the “Specific Counts (dpm)” value amounted to 5639.1 dpm; the “Total Counts (dpm) Determined” value was 6595.9 dpm; the inhibition (in general, the relative decrease from the control value, in per cent) at 1.23 µM came out at 11.7%. Besides, in the assay with Sf9 cells (0.0037 mM), the “Specific Counts (dpm)” value is 4952.4 dpm, the “Total Counts (dpm) Determined” value is 5909.2 dpm and 3.7 µM produced 22.4% inhibition. For the same molecule, in the assay on Sf9 cells (0.0111 mM), the “Specific Counts (dpm)” value is listed as 3295.5 dpm, the “Total Counts (dpm) Determined” value stood at 4252.3 dpm and at 11.1 µM the inhibition was 48.4%. Also, in the assay on Sf9 cells (0.0333 mM), the “Specific Counts (dpm)” value is 1934.3 dpm, the “Total Counts (dpm) Determined” value was determined as 2891.1 dpm and the inhibition at 33.3 µM stood at 69.7%. In addition, in the assay on Sf9 cells (0.1 mM), the “Specific Counts (dpm)” value was 1267.9 dpm, the “Total Counts (dpm) Determined” value was found to be 2224.7 dpm and 100 µM produced 80.1% inhibition.
For the molecule `Cc1ccc(/N=C/N(C)/C=N/c2ccc(C)cc2C)c(C)c1` [Amitraz, amitraz], in the assay with Sf9 cells (0.000041 mM), the “Specific Counts (dpm)” value amounted to 6020.4 dpm, the “Total Counts (dpm) Determined” value is 6899.4 dpm and testing at 0.041 µM gave an inhibition of 2.5%. Moreover, in the assay on Sf9 cells (0.000123 mM), the “Specific Counts (dpm)” value is recorded as 5130.2 dpm, the “Total Counts (dpm) Determined” value is recorded as 6009.2 dpm and at 0.123 µM the inhibition was 16.9%. In the assay on Sf9 cells (0.00037 mM), the “Specific Counts (dpm)” value was determined as 3939.2 dpm, the “Total Counts (dpm) Determined” value is recorded as 4818.2 dpm and the inhibition at 0.37 µM came to 36.2%. In the assay on Sf9 cells (0.00111 mM), the “Specific Counts (dpm)” value worked out at 2562.5 dpm, the “Total Counts (dpm) Determined” value is on record as 3441.5 dpm and the inhibition at 1.11 µM stood at 58.5%. In addition, in the assay with Sf9 cells (0.00333 mM), the “Specific Counts (dpm)” value amounted to 1428.2 dpm, the “Total Counts (dpm) Determined” value came to 2307.2 dpm and at 3.33 µM the inhibition was 76.9%. Besides, in the assay on Sf9 cells (0.01 mM), the “Specific Counts (dpm)” value is 1049.5 dpm, the “Total Counts (dpm) Determined” value turned out to be 1928.5 dpm and 10 µM produced 83% inhibition.
For the molecule `CN=CNc1ccc(Cl)cc1C` [DCDM, demethylchlordimeform], the % Inhibition – broadly, the share of the control response that was lost under treatment – with Sf9 cells (0.0000041 mM) was 11.7%; with Sf9 cells (0.0000123 mM), 23.1%; in the assay with Sf9 cells (0.000037 mM), 38%; in the assay with Sf9 cells (0.000111 mM), 58.3%; in the assay with Sf9 cells (0.000333 mM), 77.1%; with Sf9 cells (0.001 mM), 84.1%. Moreover, the “Specific Counts (dpm)” value was found to be 5687.8 dpm in the assay on Sf9 cells (0.0000041 mM); 4954.7 dpm with Sf9 cells (0.0000123 mM); 3993.7 dpm in the assay with Sf9 cells (0.000037 mM); 2689.4 dpm with Sf9 cells (0.000111 mM); 1472.8 dpm with Sf9 cells (0.000333 mM); 1026.2 dpm in the assay on Sf9 cells (0.001 mM). Besides, the “Total Counts (dpm) Determined” value in the assay with Sf9 cells (0.0000041 mM) is given as 6512.1 dpm; in the assay with Sf9 cells (0.0000123 mM), 5779.0 dpm; in the assay with Sf9 cells (0.000037 mM), 4818 dpm; with Sf9 cells (0.000111 mM), 3513.7 dpm; with Sf9 cells (0.000333 mM) it was 2297.1 dpm; with Sf9 cells (0.001 mM), 1850.5 dpm.
For the molecule `CNCC(O)c1ccc(O)cc1` (centres unmarked) [Synephrine, synephrine], in the assay with Sf9 cells (setting [2]), the “Specific Counts (dpm)” value worked out at 4516.2 dpm and the “Total Counts (dpm) Determined” value is recorded as 5487 dpm. Moreover, in the assay with Sf9 cells (0.000123 mM), the “Specific Counts (dpm)” value is 6081.7 dpm, the “Total Counts (dpm) Determined” value amounted to 7052.5 dpm and testing at 0.123 µM gave an inhibition of 3.1%. Further, in the assay with Sf9 cells (0.00037 mM), the “Specific Counts (dpm)” value was 5260 dpm, the “Total Counts (dpm) Determined” value amounted to 6230.8 dpm and the inhibition at 0.37 µM was found to be 16.2%. For the same molecule, in the assay with Sf9 cells (0.00333 mM), the “Specific Counts (dpm)” value amounted to 2732.7 dpm, the “Total Counts (dpm) Determined” value stood at 3703.5 dpm and testing at 3.33 µM gave an inhibition of 56.4%. For the same molecule, in the assay on Sf9 cells (0.011 mM), the “Specific Counts (dpm)” value is given as 1605.1 dpm, the “Total Counts (dpm) Determined” value is 2575.9 dpm and the inhibition at 11 µM came out at 74.4%. For the same molecule, in the assay on Sf9 cells (0.033 mM), the “Specific Counts (dpm)” value was 1074.6 dpm, the “Total Counts (dpm) Determined” value is given as 2045.4 dpm and testing at 33 µM gave an inhibition of 82.9%.
As for `Nc1ncnc2c1ncn2[C@@H]1O[C@@H]2COP(=O)(O)O[C@H]2[C@H]1O` [cAMP Standard, cyclic adenosine 3′,5′-monophosphate], the “% Inhibition” value in assay [1] (0.0000026 mM) is 20.3%; in assay [1] (0.0000078 mM), 37.5%; in assay [1] (0.000023 mM), 61.7%; in assay [1] (0.00007 mM) it was 78.8%; in assay [1] (0.00021 mM) it was 90.4%; in assay [1] (0.00064 mM), 95.5%. Further, the “Specific Counts (dpm)” value is 5398.5 dpm in assay [1] (0.0000026 mM); 4234.8 dpm in assay [1] (0.0000078 mM); 2595.8 dpm in assay [1] (0.000023 mM); 1435.8 dpm in assay [1] (0.00007 mM); 648.8 dpm in assay [1] (0.00021 mM); 307.6 dpm in assay [1] (0.00064 mM). The “Total Counts (dpm) Determined” value is reported as 5791 dpm in assay [1] (0.0000026 mM); 4627.3 dpm in assay [1] (0.0000078 mM); 2988.3 dpm in assay [1] (0.000023 mM); 1828.3 dpm in assay [1] (0.00007 mM); 1041.3 dpm in assay [1] (0.00021 mM); 700.3 dpm in assay [1] (0.00064 mM).

For the origin of these results see US6642004B2, “Method for measuring nucleotides” (FMC Corporation, priority 2000, dated 2003).
